Reference: patent US20070135365A1, “Pharmaceutical composition for preventing or remedying cardiac hypertrophy and cardiovascular disease caused thereby” (priority 2003, published 2007)
Each block holds one compound with its values, some of them ahead of it.

Legend:
[1] = system: neonatal rat cardiomyocytes (NRC); assay: Immunofluorescence of α-actinin: sarcomere structures (cardiac hypertrophy state) in drug-treated NRC; assay type: cell-based
Protocol: (§1) NRC prepared by a method similar to the method as described in (1) of Experiment 1 was moved to a glass culture plate (35 mm diameter) coated with poly-L-lysine, and was cultured over night (5% CO2 concentration, 37° C.) in DMEM without blood serum (manufactured by Nacalai Tesque). TPA was added to this to make a final concentration of 20 nM, and this was cultured a further 18 hours (5% CO2 concentration, 37° C.) (approximately 1×10^3 cells). After culturing, the cells obtained were rinsed 2 times with PBS, fixed by treating with 4 w/v % paraformaldehide for 30 minutes at room temperature, treated by soaking in PBS containing 0.25 v/v % Triton X-100 for 30 minutes at 4° C., and then incubated in blocking buffer solution (PBS containing 3 w/v % BSA, 2 v/v % FBS, 1 v/v % normal goat blood serum, and 0.03 v/v % Triton X-100).
(§2) This was rinsed 2 times in PBS, moved into PBS containing 0.3 v/v % Cy3-labeled anti-mouse IgG antibody, and 0.3 v/v % Cy2-labeled anti-rabbit IgG antibody (second antibody) (both manufactured by Amersham Pharmacia), and incubated for 1 hour at room temperature. The fluorescent signals of the cells were observed by a confocal laser scanning microscope LSM5 Pascal (manufactured by Carl Zeiss Inc.). Untreated NRC (None), which was not treated with TPA, was labeled with antibodies in the same manner as a contrast, and the results of observing the cell luminescence signals by confocal laser microscope (LSM5 Pascal) are indicated in FIG. 3B.
(§3) Specifically, NRC prepared by the same method as described above in (1) of Experiment 1 was moved to a glass culture plate (35 mm diameter) coated with poly-L-lysin, and was cultured over night (5% CO2 concentration, 37° C.) in DMEM without blood serum (manufactured by Nacalai Tesque). Five samples of the culture cells in question were used and added respectively to (1) 100 μM (final concentration, same hereinafter) NE (containing 2 μM propranol), (2) 100 μM AngII, (3) 20 nM LIF, (4) 100 μM NE (containing 2 μM propranol)+400 nM GF109203X (concretely, treated for 30 minutes by adding GF109203X, and then NE was added), (5) 20 nM LIF+400 nM GF109203X (concretely, treated for 30 minutes by adding GF109203X, and then LIF was added), and these were cultured a further 38 hours (5% CO2 concentration, 37° C.) (approximately 1×10^3 cells).
(§4) After culturing, the cells were rinsed 2 times with PBS, fixed by treating with 4 w/v % paraformaldehide for 30 minutes at room temperature, treated by soaking in PBS containing 0.25 v/v % Triton X-100 for 30 minutes at 4° C., and then incubated in blocking buffer solution (PBS containing 3 w/v % BSA, 2 v/v % FBS, 1 v/v % normal goat blood serum, and 0.03 v/v % Triton X-100). […] This was rinsed 2 times in PBS, moved into PBS containing 0.3 v/v % Cy3-labeled anti-mouse IgG antibody, and 0.3 v/v % Cy2-labeled anti-rabbit IgG antibody (second antibody) (both manufactured by Amersham Pharmacia), and incubated for 1 hour at room temperature. The fluorescent signals of the cells were observed by a confocal laser scanning microscope LSM5 Pascal (manufactured by Carl Zeiss Ltd.).

[2] = system: fully active PKD1 (phosphorylated PKD1); assay: Immunofluorescence: intracellular distribution of fully active PKD1 in drug-treated NRC; assay type: cell-based, rat; details: for full activation (phosphorylation) of PKD1 and movement to sarcomere Z-discs: 100 μM NE (containing 2 μM propranol), 100 μM AngII or 20 nM LIF
Protocol: as §1, §2, §3, §4

PKD1 [3] = assay: Immunoprecipitation kinase assay with Syntide-2 on PKD1 from drug-treated NRC; assay type: cell-based, rat; details: for phosphorylation activity of PKD1 (Syntide-2) relative to untreated NRC: NRC treated 20 minutes, 100 nM TPA, 100 μM NE (containing 2 μM propranol) or 20 nM LIF, n=9
Protocol: The ability of PKD1 to phosphorylate Syntide-2 (APLARTLSVAGLPGKK), which is a selective substance for PKD1, can be used as an index to assess PKD1 activity (Valverde, A. M., et al., Proc. Natl. Acad. Sci. USA, 91, 1994, p. 8572-8576).
Concretely, immunoprecipitation kinase assays using Syntide-2 as a substrate were conducted on the following NRC samples: NRC samples with cardiac hypertrophy induced by treating for 20 minutes respectively with (1) 100 nM TPA, (2) 100 μM NE, and (3) 20 nM LIF, and NRC samples treated for 20 minutes respectively with (4) 400 nM GF109203X (PKC inhibitor), (5) 20 nM TPA+400 nM GF109203X, (6) 100 μM NE+400 nM GF109203X, and (7) 20 nM LIF+400 nM GF109203X. The phosphorylation activity of PKD1 present in the various NRC samples was measured. In addition, as a control, the phosphorylation activity of PKD1 present in NRC that was not treated with anything (untreated NRC) was described and measured in the same way.
NRC prepared by the same method as described in (1) of Experiment 1 was cultured over night (5% CO2 concentration, 37° C.) in DMEM without blood serum (manufactured by Nacalai Tesque). To the cultured cells, (1) 100 nM TPA, (2) 100 μM NE (containing 2 μM propranol), (3) 20 nM LIF, (4) 400 nM GF109203X (PKC inhibitor), (5) 20 nM TPA+400 nM GF109203X, (6) 100 μM NE+400 nM GF109203X, and (7) 20 nM LIF+400 nM GF109203X were added respectively, and treated for 20 minutes. The cells obtained were treated with Lysis buffer solution A, and incubated for 60 minutes on ice together with anti-fully active PKD1 polyclonal antibody. This was treated with protein G Sepharose 4B, and protein bound to the resin (Protein G Sepharose 4B bound PKD1-anti-PKD1 antibody complex) was recovered. The PKD1 immunoprecipitate was rinsed 1 time in Lysis buffer solution A, and further rinsed 2 times with Lysis buffer solution A not containing NaF.
The PKD1 was eluted from PKD1 immunoprecipitate obtained by incubating in Lysis buffer solution A not containing NaF together with 100 μL of 0.5 mg/mL immunizing peptide. The immunizing peptide is an antigen peptide used in order to immunize test animals to create anti-fully active PKD1 polyconal antibody. When incubating this peptide with protein G Sepharose 4B bound PKD1-anti-PKD1 antibody complex, the aforementioned antigen peptide and the anti-PKD1 antibody bond, and as a result, PKD1 can be freed and obtained.
The eluted PKD1 (10 μL) was incubated for 5 minutes at 30° C. together with assay mixed solution (15 μL Tris/MgCl2 (100 mM Tris, 100 mM MgCl2), 5 μL ATP (800 μM), 0.2 μL ^32γ-ATP, and 40 μg Syntide-2). Next, the PKD1 phosphorylation activity was measured by liquid scintillation counter (n=9).

PKCε and PKD1 = assay: Immunoprecipitation assay and Western blotting for interaction of PKCε and PKD1 in NE-treated NRC; assay type: cell-based, rat; details: 100 μM NE (containing 2 μM propranol), versus NRC not treated with NE
Protocol: Primary NRC in culture prepared according to the method described in Experiment 1 (1) was treated with 100 μM NE (containing 2 μM propranol) in the same manner as in Experiment 3; the NE treated NRC in question was treated with Lysis buffer solution A; and 1 mL of cell extract (cell lysate) was obtained. […] of the cell extract was incubated for 60 minutes on ice together with anti-PKD1/2 monoclonal antibody; and this was then treated with protein G Sepharose 4B, and protein bound to the resin in question (anti-PKD1 antibody immunoprecipitate sample) was recovered. As indicated in experiment 1, no PKD2 was present in the NRC. Using anti-PKDε monoclonal antibody made in the same manner, anti-PKDε antibody immunoprecipitate sample was collected. As a control, 1 mL cell extract (cell lysate) of untreated NRC was obtained in the same way, and anti-PKDε antibody immunoprecipitate sample and anti-PKD1 antibody immunoprecipitate sample were prepared.
Next, Western blotting was conducted on the anti-PKCε antibody immunoprecipitate samples and the cell extract (cell lysate) obtained for the various NRC by using anti-PKD1/2 monoclonal antibody as the first antibody, and anti-mouse or anti-rabbit IgG bound with horseradish derived peroxidase (manufactured by Amersham Pharmacia) as the second antibody. […]

PKD1 [4] = assay: Western blotting of cytoplasm and cell membrane fractions of TPA-treated NRC; assay type: cell-based, rat; details: 100 nM TPA, 20 minutes, versus untreated
Protocol: The NRC prepared above was moved to non-serum DMEM (manufactured by Nacalai Tesque), and cultured overnight (5% CO2 concentration, 37° C.). Then, TPA was added to the culture to make a final concentration of 100 nM, and incubated for 20 minutes. Next, the cardiomyocytes were recovered and rinsed in PBS, subjected to bacteriolysis by treating with Lysis buffer solution (having the same composition as Lysis buffer solution A except that the Triton X-100 was 0.1%), centrifuged (15000 rpm, approximately 10 minutes), and fractioned into supernatant (cytoplasm fraction) and precipitate. The precipitate was further dissolved in Lysis buffer solution A. This was lightly separated by centrifuge, and the supernatant obtained was taken as the cell membrane fraction. As a control, NRC that was not treated with TPA was subjected to bacteriolysis, and the cytoplasm and cell membrane fractions were separated in the same manner as above (untreated substance). […]
Next, anti-mouse or anti-rabbit IgG bound with horseradish derived peroxidase (manufactured by Amersham Pharmacia) was used as the second antibody reagent, so that it is possible to observe the blotting results with chemical luminescence on X-ray film.

[5] = system: fully active PKD1 (phosphorylated PKD1); assay: Immunofluorescence: intracellular distribution of fully active PKD1 in drug-treated NRC; assay type: cell-based, rat; details: cardiomyocytes in which EGF was allowed to act
[6] = 400 nM GF109203X for 30 minutes, then 100 μM NE (containing 2 μM propranol), 38 hours
[7] = 38 hours, 100 μM NE (containing 2 μM propranol), 100 μM AngII or 20 nM LIF

Compound: CN(C)CCCn1cc(C2=C(c3c[nH]c4ccccc34)C(=O)NC2=O)c2ccccc21 [GF109203X]
effect on LIF-induced cardiac hypertrophy ([1]; 400 nM GF109203X for 30 minutes, then 20 nM LIF, 38 hours): a cardiac hypertrophy state was revealed | effect on NE-induced cardiac hypertrophy [1, 6]: no cardiac hypertrophy is generated | effect on NE-induced full activation of PKD1 and movement to sarcomere Z-discs [2, 6]: no fully activated PKD1 (phosphorylation) and no movement to sarcomere Z-discs were observed | intrinsic PKD1 activity with TPA plus PKC inhibitor (PKD1 [3]; NRC, 20 minutes, 20 nM TPA+400 nM GF109203X): suppressed to the same level as that of the negative control | intrinsic PKD1 activity with NE plus PKC inhibitor (PKD1 [3]; NRC, 20 minutes, 100 μM NE+400 nM GF109203X): suppressed to the same level as that of the negative control

phosphorylation activity of PKD1 (Syntide-2) relative to untreated NRC (PKD1 [3]): notably higher phosphorylation activity
Compound: NC[C@H](O)c1ccc(O)c(O)c1 [NE, Norepinephrine]
induction of cardiac hypertrophy (formation of sarcomere structures, visualization of Z-discs) [1, 7]: induced cardiac hypertrophy | full activation (phosphorylation) of PKD1 and movement to sarcomere Z-discs ([2]; 38 hours): PKD1 was fully activated (phosphorylated) | formation of complex of PKCε and PKD1 (PKCε and PKD1): complex of PKCε and PKD1 were formed

Compound: CCCCCCCCCCCCCC(=O)O[C@@H]1[C@@H](C)[C@@]2(O)[C@@H](C=C(CO)C[C@]3(O)C(=O)C(C)=C[C@@H]23)[C@H]2C(C)(C)[C@]12OC(C)=O [TPA, 12-0-tetradecanoylphorbol 13-acetate]
fully active PKD1 (phosphorylated PKD1) in cytoplasm and membrane fractions (PKD1 [4]): present in large amounts in the membrane fraction | induction of cardiac hypertrophy (formation of sarcomere structures, visualization of Z-discs) ([1]; 20 nM TPA, 18 hours): cardiac hypertrophy was induced | activation of PKD1 and localization of fully active PKD1 ([2]; 20 nM TPA, 18 hours): the fully activated PKD1 moves to the sarcomere Z-disc region | phosphorylation activity of PKD1 (Syntide-2) relative to untreated NRC (PKD1 [3]): notably higher phosphorylation activity

Compound: Angiotensin II (DRVYIHPF; Angiotensin-2; UniProt P01019 25-32, looked up) [AngII, cardiac hypertrophy inducer]
induction of cardiac hypertrophy (formation of sarcomere structures, visualization of Z-discs) [1, 7]: induced cardiac hypertrophy | full activation (phosphorylation) of PKD1 and movement to sarcomere Z-discs ([2]; 38 hours): PKD1 was fully activated (phosphorylated)

Compound: Epidermal growth factor [EGF]
full activation of PKD1 and movement to sarcomere Z-discs [5]: also observed

Compound: Leukemia inhibitory factor [LIF]
induction of cardiac hypertrophy (formation of sarcomere structures, visualization of Z-discs) [1, 7]: inducing cardiac hypertrophy | full activation (phosphorylation) of PKD1 and movement to sarcomere Z-discs ([2]; 38 hours): no full activation (phosphorylation) of PKD1 and no movement of PKD1 to the vicinity of the sarcomere Z-discs | phosphorylation activity of PKD1 (Syntide-2) relative to untreated NRC (PKD1 [3]): hardly different from that of untreated NRC
